Literature values in patent US9034622B2, “Preparation for photodynamic control of microorganisms and use thereof” (priority 2004, dated 2015).

Columns and labels:
[1] = test system: reperfusion-induced damage or the extent of the myocardial infarct; settings: intravenous glutathione administration; pigs pre-treated with glutathione synthesis inhibitor; ischemia/reperfusion
isolated perfused heart = settings: perfusate enriched with GSH

N[C@@H](CCC(=O)N[C@@H](CS)C(=O)NCC(=O)O)C(=O)O [glutathione, Glutathione]
reperfusion-induced damage or extent of the myocardial infarct [1]: could be reduced | recovery of ventricle function after ischemia and reperfusion (isolated perfused heart): better recovery of ventricle function
